Laboratory results from patent publication US12441775B2, “BCL-W polypeptides and mimetics for treating or preventing chemotherapy-induced peripheral neuropathy and hearing loss” (Dana-Farber Cancer Institute, Inc., priority 2016, dated 2025).

Test system: mice
Assay: Epidermal footpad innervation (Tuj1-positive intraepidermal nerve fibers)
Format: in vivo, mouse
Experimental: Paclitaxel treatment and behavioral testing. 2 month old age-matched bclw−/− and bclw+/+ mice (17-30 g) of either sex were injected intraperitoneally (IP) with 4 mg/kg paclitaxel (Bristol-Myers Squibb) every other day for 8 days (4 total injections). Paclitaxel was prepared as 1 part 6 mg/ml paclitaxel stock solution diluted in vehicle (1:1 v/v Cremophor EL [EMD Millipore] and dehydrated ethanol) and 2 parts sterile saline and injected at 10 μl/g. Control mice were injected with 1 part vehicle and 2 parts saline. […] For three days prior to the baseline testing, mice were weighed, trained on an automated RotaRod apparatus (4 rpm for 1 min without falling), and habituated in von Frey cages. The next two days, baseline behavioral performance was assessed and averaged. The first paclitaxel injection was given three days later, and mice were weighed and behaviorally tested 10 days after the final injection. To assay motor function, mice were placed on the RotaRod with a ramp of 4-40 rpm and 0.4 rpm/sec acceleration, and latency to fall was measured. […] Withdrawal threshold was determined to be the applied force at which the animal withdrew the stimulated paw on at least 2 of 10 applications. […] Mouse behavior was assessed by an experimenter blind to genotype and condition.
Epidermal footpad innervation. […] Images were acquired and quantified in NIH ImageJ by an experimenter blind to condition.

Structure (SMILES): CC(=O)O[C@H]1C(=O)[C@@]2(C)[C@H]([C@H](OC(=O)c3ccccc3)[C@]3(O)C[C@H](OC(=O)[C@H](O)[C@@H](NC(=O)c4ccccc4)c4ccccc4)C(C)=C1C3(C)C)[C@]1(OC(C)=O)CO[C@@H]1C[C@@H]2O [paclitaxel]
- intraepidermal nerve fiber number of the hindpaw (bclw−/− compared to bclw+/+ mice, thick and thin skin): greater reduction in intraepidermal nerve fiber number
- thick skin epidermal innervation (paclitaxel-treated compared with control mice (Example 12)): decreased thick skin epidermal innervation
